Some test systems named below: K562; ACHN; MCF7; NCI-H460; SF-295; SN12C; RPMI-8226; SNB-75; UO-31; OVCAR-3; MDA-MB-435; SW-620; NCI-H23; T47D; OVCAR-8; TK-10; IGROV-1; HOP-92; MDA-N; SF-539.
What all share (assay): NCI-60 cell line screen, 48 h

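These data come from cells grown in 96-well plates and exposed to compound for 48 hours at five concentrations. Abbreviation: GI50, concentration required for 50% inhibition of growth.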 Active and inactive are the calls of the source. No stated cut-off is given here; in the data, active = GI50 up to about 1.1 µM and inactive = higher.

For `CC(C)N1CCN(c2ccncc2S(=O)(=O)N2CCCCC2)CC1`, the GI50 in the experiment with K562, in the experiment with ACHN, in the experiment on MCF7, in the experiment on NCI-H460, in the experiment with SF-295 and with SN12C was > 100 µM (inactive) each time. Moreover, the GI50 in the experiment with RPMI-8226, in the experiment with SNB-75, in the experiment with UO-31, with OVCAR-3, in the experiment on MDA-MB-435 and in the experiment with SW-620 was > 100 µM (inactive) in each case. Further, the GI50 in the experiment with NCI-H23, with T47D, with OVCAR-8, in the experiment with TK-10, in the experiment with IGROV-1 and in the experiment with HOP-92 was > 100 µM (inactive) in each case. Further, the GI50 in the experiment with MDA-N and in the experiment on SF-539 was > 100 µM (inactive) each time.
`O=c1[nH]cc(/C=N\Nc2ccccc2)c(=O)[nH]1`: the GI50 in the experiment with K562 was 3.96 µM (inactive); in the experiment with ACHN, 68.9 µM (inactive); in the experiment with MCF7 it was > 100 µM (inactive); with NCI-H460, 47.8 µM (inactive); in the experiment on SF-295, 25.7 µM (inactive); in the experiment with SN12C, > 100 µM (inactive). For the same compound, the GI50 with RPMI-8226 is > 100 µM (inactive); in the experiment on SNB-75, > 100 µM (inactive); with UO-31 it was > 100 µM (inactive); in the experiment on OVCAR-3, 21.8 µM (inactive); with MDA-MB-435, > 100 µM (inactive); with SW-620 it was > 100 µM (inactive). The GI50 with NCI-H23 is > 100 µM (inactive); with T47D it was 9.23 µM (inactive); in the experiment on OVCAR-8, > 100 µM (inactive); with TK-10 it was > 100 µM (inactive); in the experiment on IGROV-1, > 100 µM (inactive); in the experiment on HOP-92 it was > 100 µM (inactive). Also, the GI50 in the experiment on MDA-N and with SF-539 was > 100 µM (inactive) in each case.
On to `COc1ccc2[nH]c3c(C)c4ccnc(NCCCN(C)CCCNc5ccc6ncn7c8ccccc8c(=O)c5c67)c4c(C)c3c2c1`, for which the GI50 was 0.0632 µM (active) in the experiment on K562; 0.0598 µM (active) in the experiment with ACHN; 0.142 µM (active) with MCF7; 0.0782 µM (active) with NCI-H460; 0.34 µM (active) with SF-295; 0.0621 µM (active) in the experiment on SN12C. The GI50 with RPMI-8226 was 0.13 µM (active); with SNB-75, 1.71 µM (inactive); with UO-31, 0.361 µM (active); with OVCAR-3 it was 1.87 µM (inactive); in the experiment on MDA-MB-435, 0.713 µM (active); with SW-620, 0.0418 µM (active). In addition, the GI50 in the experiment with NCI-H23 is 0.412 µM (active); in the experiment with T47D, 0.979 µM (active); in the experiment with OVCAR-8, 0.348 µM (active); with TK-10, 0.22 µM (active); in the experiment on IGROV-1, 0.158 µM (active); in the experiment with HOP-92, 1.68 µM (inactive). Also, the GI50 is 0.411 µM (active) in the experiment with MDA-N and 0.132 µM (active) in the experiment with SF-539.
For the compound `c1cc2n(n1)CCN2`, the GI50 was 2000 µM (inactive) in the experiment on K562; 151 µM (inactive) in the experiment on ACHN; 828 µM (inactive) in the experiment with MCF7; 820 µM (inactive) in the experiment with NCI-H460; 348 µM (inactive) in the experiment with SF-295; 1240 µM (inactive) in the experiment on SN12C. Also, the GI50 with RPMI-8226 was 1890 µM (inactive); in the experiment on SNB-75, 3400 µM (inactive); in the experiment on UO-31, 1320 µM (inactive); in the experiment on OVCAR-3, 2280 µM (inactive); in the experiment with MDA-MB-435, 3940 µM (inactive); with SW-620, 3430 µM (inactive). The GI50 in the experiment with NCI-H23 was 1060 µM (inactive); with T47D it was 347 µM (inactive); in the experiment with OVCAR-8 it was 875 µM (inactive); in the experiment on TK-10, > 1490 µM (inactive); in the experiment with IGROV-1, 7380 µM (inactive); in the experiment on HOP-92, 1590 µM (inactive). Also, the GI50 with MDA-N is 4680 µM (inactive); with SF-539, 646 µM (inactive).
Regarding `Cc1ccc([N+](=O)[O-])cc1S(=O)(=O)Nc1ccc(C(=O)/C=C/c2ccccc2)cc1`, the GI50 in the experiment with K562 is 4.79 µM (inactive); in the experiment with ACHN, 13.2 µM (inactive); in the experiment on MCF7, 10.1 µM (inactive); in the experiment with NCI-H460, 18.1 µM (inactive); in the experiment on SF-295, 20.3 µM (inactive); in the experiment with SN12C it was 19.8 µM (inactive). Besides, the GI50 in the experiment on RPMI-8226 was 11.5 µM (inactive); in the experiment with SNB-75, 17.3 µM (inactive); in the experiment with UO-31, 18.4 µM (inactive); in the experiment on OVCAR-3, 15.7 µM (inactive); in the experiment on MDA-MB-435 it was 19.6 µM (inactive); with SW-620 it was 24.7 µM (inactive). The GI50 in the experiment with NCI-H23 is 16.7 µM (inactive); in the experiment with T47D, 16.3 µM (inactive); in the experiment on OVCAR-8, 23.2 µM (inactive); in the experiment on TK-10, 31.3 µM (inactive); with IGROV-1, 18.7 µM (inactive); with HOP-92 it was 15.9 µM (inactive). Besides, the GI50 in the experiment with MDA-N is 20.2 µM (inactive); with SF-539, 30.5 µM (inactive).
Regarding `CC(Br)C(=O)NC(CO)C(=O)O` (stereo not given), the GI50 in the experiment on K562, with ACHN, with MCF7, in the experiment with NCI-H460, in the experiment with SF-295 and in the experiment with SN12C was > 100 µM (inactive) throughout. The GI50 in the experiment with RPMI-8226, in the experiment on SNB-75, in the experiment with UO-31, in the experiment with OVCAR-3, in the experiment on MDA-MB-435 and with SW-620 was > 100 µM (inactive) throughout. In addition, the GI50 with NCI-H23, in the experiment on T47D, in the experiment with OVCAR-8, in the experiment with TK-10, in the experiment on IGROV-1 and in the experiment with HOP-92 was > 100 µM (inactive) each time. Further, the GI50 with MDA-N and in the experiment with SF-539 was > 100 µM (inactive) each time.
In the case of `O=C(NO)c1cccc(OCc2ccc(Br)cc2)c1`, the GI50 in the experiment with K562 was 3.6 µM (inactive); with ACHN it was 3.03 µM (inactive); with MCF7 it was 2.45 µM (inactive); in the experiment with NCI-H460, 3.06 µM (inactive); with SF-295, 4.79 µM (inactive); with SN12C it was 2.79 µM (inactive). Moreover, the GI50 in the experiment with RPMI-8226 was 2.74 µM (inactive); in the experiment on SNB-75 it was 4.29 µM (inactive); in the experiment with UO-31, 2.77 µM (inactive); in the experiment on OVCAR-3 it was 3.85 µM (inactive); in the experiment with MDA-MB-435, 5.73 µM (inactive); in the experiment with SW-620, 6.55 µM (inactive). The GI50 with NCI-H23 is 3.79 µM (inactive); with T47D, 3.06 µM (inactive); in the experiment on OVCAR-8, 1.32 µM (inactive); with TK-10 it was 10.5 µM (inactive); with IGROV-1, 3.35 µM (inactive); with HOP-92 it was 7.8 µM (inactive). In addition, the GI50 is 9.02 µM (inactive) in the experiment on MDA-N and 4.72 µM (inactive) with SF-539.
Regarding `Nc1ccc(C(=O)Nn2c(-c3ccccc3)nc3ccccc3c2=O)cc1`, the GI50 with K562, in the experiment on ACHN, in the experiment with MCF7, in the experiment with NCI-H460, in the experiment with SF-295 and in the experiment with SN12C was > 100 µM (inactive) in each case. The GI50 in the experiment on RPMI-8226 is > 100 µM (inactive); with SNB-75, 89.7 µM (inactive); in the experiment with UO-31, > 100 µM (inactive); in the experiment on OVCAR-3, > 100 µM (inactive); in the experiment on MDA-MB-435, > 100 µM (inactive); with SW-620, > 100 µM (inactive). The GI50 with NCI-H23, with T47D, in the experiment on OVCAR-8, with TK-10, in the experiment on IGROV-1 and in the experiment on HOP-92 was > 100 µM (inactive) each time. The GI50 in the experiment with MDA-N and with SF-539 was > 100 µM (inactive) in each case.
Regarding `CC1=C(O)C(=O)C=C2C1=CC=C1[C@@]2(C)CC[C@@]2(C)C3C[C@@H](C)C(=O)[C@@H](O)[C@]3(C)CC[C@]12C` (stereo not given in full), the GI50 with K562 was 0.891 µM (active); in the experiment on ACHN it was 1.7 µM (inactive); in the experiment on MCF7 it was 2.77 µM (inactive); in the experiment with NCI-H460 it was 5.58 µM (inactive); in the experiment on SF-295, 4.55 µM (inactive); in the experiment on SN12C, 2.08 µM (inactive). Moreover, the GI50 with RPMI-8226 is 1.25 µM (inactive); in the experiment on SNB-75, 8.38 µM (inactive); in the experiment on UO-31, 1.92 µM (inactive); in the experiment with OVCAR-3 it was 1.88 µM (inactive); with MDA-MB-435, 2.24 µM (inactive); with SW-620 it was 1.24 µM (inactive). Also, the GI50 was 1.97 µM (inactive) in the experiment with NCI-H23; 1.64 µM (inactive) in the experiment on T47D; 2.39 µM (inactive) in the experiment with OVCAR-8; 1.84 µM (inactive) with TK-10; 1.73 µM (inactive) in the experiment on IGROV-1; 2.03 µM (inactive) in the experiment with HOP-92. In addition, the GI50 in the experiment on MDA-N is 1.69 µM (inactive); in the experiment with SF-539, 2.14 µM (inactive).
With `CC1/C(=N/O)CC(c2ccccc2)N(N=O)C1c1ccccc1` (stereo not given), the GI50 in the experiment with K562, in the experiment with ACHN, in the experiment with MCF7, in the experiment on NCI-H460, in the experiment on SF-295 and with SN12C was > 100 µM (inactive) throughout. Moreover, the GI50 in the experiment with RPMI-8226 was > 100 µM (inactive); with SNB-75, 91.4 µM (inactive); with UO-31, > 100 µM (inactive); in the experiment with OVCAR-3, > 100 µM (inactive); in the experiment on MDA-MB-435, > 100 µM (inactive); in the experiment on SW-620 it was > 100 µM (inactive). For the same compound, the GI50 in the experiment on NCI-H23, in the experiment on T47D, in the experiment with OVCAR-8, in the experiment with TK-10, in the experiment with IGROV-1 and in the experiment with HOP-92 was > 100 µM (inactive) throughout. The GI50 with MDA-N and with SF-539 was > 100 µM (inactive) throughout.

The record behind these values is ChEMBL document CHEMBL1201862, “PubChem BioAssay data set” (2004).
